Values quoted from earlier work as cited in patent US20180148781A1, “Antioxidant Compounds For Cleave Formulations That Support Long Reads In Sequencing-By-Synthesis” (QIAGEN Waltham, Inc., priority 2016, published 2018).

Conditions: pH 7.4

Structure (SMILES): O=C1O[C@H]([C@@H](O)CO)C(O)=C1O [Ascorbic Acid]
- fraction present in mono-anionic form as ascorbate: 99.95%
